# Results as given in ChEMBL document CHEMBL5308504, “Tm Shift (DSF) assay results for EUbOPEN Chemogenomics Library” (2023).
# Several values for one entry are separate records, joined by “and”; a condition that tells them apart may be missing. Equal values may be shown once.
# Key:
# [1] = target: Fibroblast growth factor receptor 3 (Homo sapiens) (UniProt P22607); settings: Compound concentration 20.0 uM, Protein concentration 2.0 uM, Result type QC Liability
# Description: Thermal Shift Assay. Domain: start/stop: P449-E759
# Peregrin (Homo sapiens) = target: T1, Peregrin (Homo sapiens) (UniProt P55201); settings: Compound concentration 20.0 uM, Protein concentration 2.0 uM, Result type QC Liability
# T1 sequence (whole entry): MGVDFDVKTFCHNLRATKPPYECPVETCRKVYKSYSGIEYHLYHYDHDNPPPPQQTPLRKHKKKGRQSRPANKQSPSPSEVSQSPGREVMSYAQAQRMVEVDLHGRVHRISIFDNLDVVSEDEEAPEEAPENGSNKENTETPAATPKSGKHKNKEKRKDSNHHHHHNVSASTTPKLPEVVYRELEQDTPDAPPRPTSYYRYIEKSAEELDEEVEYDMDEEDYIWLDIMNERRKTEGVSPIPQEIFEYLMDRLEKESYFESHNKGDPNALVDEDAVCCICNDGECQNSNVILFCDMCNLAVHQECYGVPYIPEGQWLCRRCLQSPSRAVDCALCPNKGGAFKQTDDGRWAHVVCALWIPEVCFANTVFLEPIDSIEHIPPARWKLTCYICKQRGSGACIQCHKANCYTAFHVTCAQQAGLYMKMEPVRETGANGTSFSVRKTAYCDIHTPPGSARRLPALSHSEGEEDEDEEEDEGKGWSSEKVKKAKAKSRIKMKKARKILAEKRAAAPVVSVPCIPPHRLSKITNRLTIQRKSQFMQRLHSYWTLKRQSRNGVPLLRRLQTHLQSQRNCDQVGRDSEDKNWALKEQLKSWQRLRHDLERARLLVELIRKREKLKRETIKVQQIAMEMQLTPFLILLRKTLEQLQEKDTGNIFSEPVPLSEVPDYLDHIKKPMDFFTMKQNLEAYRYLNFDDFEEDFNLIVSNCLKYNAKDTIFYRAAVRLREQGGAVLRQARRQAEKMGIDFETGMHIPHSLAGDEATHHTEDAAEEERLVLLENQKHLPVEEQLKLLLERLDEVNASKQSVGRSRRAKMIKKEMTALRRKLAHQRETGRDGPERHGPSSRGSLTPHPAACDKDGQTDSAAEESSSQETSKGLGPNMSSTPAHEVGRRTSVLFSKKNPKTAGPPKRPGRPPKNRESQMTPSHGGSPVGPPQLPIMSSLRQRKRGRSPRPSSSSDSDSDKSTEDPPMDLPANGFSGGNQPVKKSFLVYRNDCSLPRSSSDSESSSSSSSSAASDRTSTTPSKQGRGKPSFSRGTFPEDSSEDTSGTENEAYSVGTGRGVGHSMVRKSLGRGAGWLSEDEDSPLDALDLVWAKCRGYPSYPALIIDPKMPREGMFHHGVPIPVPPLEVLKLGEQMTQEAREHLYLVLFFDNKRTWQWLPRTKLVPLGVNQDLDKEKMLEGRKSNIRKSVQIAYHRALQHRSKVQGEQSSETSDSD
# Chain of Fibroblast growth factor receptor 3 (Homo sapiens) (P22607 23-806 limits assumed): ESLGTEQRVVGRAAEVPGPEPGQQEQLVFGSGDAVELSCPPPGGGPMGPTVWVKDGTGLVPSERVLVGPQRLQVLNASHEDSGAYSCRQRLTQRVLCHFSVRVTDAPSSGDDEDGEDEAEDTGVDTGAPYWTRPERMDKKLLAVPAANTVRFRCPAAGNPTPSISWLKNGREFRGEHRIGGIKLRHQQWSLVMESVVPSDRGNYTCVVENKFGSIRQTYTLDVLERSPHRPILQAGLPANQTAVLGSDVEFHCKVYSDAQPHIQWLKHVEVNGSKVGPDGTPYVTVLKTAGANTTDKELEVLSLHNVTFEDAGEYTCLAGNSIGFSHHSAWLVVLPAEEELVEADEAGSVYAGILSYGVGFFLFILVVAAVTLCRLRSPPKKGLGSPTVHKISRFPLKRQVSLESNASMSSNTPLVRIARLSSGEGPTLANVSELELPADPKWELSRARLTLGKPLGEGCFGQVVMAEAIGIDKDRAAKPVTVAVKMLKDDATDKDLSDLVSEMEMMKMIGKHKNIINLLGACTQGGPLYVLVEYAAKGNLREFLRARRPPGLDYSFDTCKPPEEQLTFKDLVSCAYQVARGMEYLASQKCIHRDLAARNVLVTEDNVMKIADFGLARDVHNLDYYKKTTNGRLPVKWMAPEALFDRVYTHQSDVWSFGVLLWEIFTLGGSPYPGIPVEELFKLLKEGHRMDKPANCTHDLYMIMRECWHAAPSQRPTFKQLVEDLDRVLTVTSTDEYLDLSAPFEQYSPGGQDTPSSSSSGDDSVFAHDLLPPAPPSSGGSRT
SMILES,ΔTm [1],ΔTm (Peregrin (Homo sapiens))
CC(F)(F)CN1C(=O)c2[nH]nc(-c3cccc4[nH]c(=O)oc34)c2C1c1ccc(Oc2cc(C(F)(F)F)cc(C(F)(F)F)c2)cc1 (stereo not given),-5.32 °C,-0.66 °C
CC1CN(CC(=O)N2CC(C)(C)c3nc(CO)c(Cc4ccc(F)cc4)cc32)C(CN2CCOCC2C)CN1 (stereo not given),0.81 °C,-1.08 °C
O=C(O)CCn1c2c(c3ccccc31)C[C@H](NS(=O)(=O)c1ccc(F)cc1)CC2,0.49 °C,-1.45 °C
COC(=O)Nc1nc2c(s1)-c1c(c(-c3cccnc3)nn1-c1ccc(C3(N(C)C)CC3)cc1)CC2,1.4 °C,-1.72 °C
CCS(=O)(=O)Nc1cccc(Oc2cc(F)cc(Nc3ccc(I)cc3F)c2NS(=O)(=O)C2CC2)c1,-1.54 °C,-1.34 °C
Cc1cc(CN(CC(=O)Nc2ccc(Cl)cc2Cl)C2CCCCC2)ccc1OCC(=O)O,-0.33 °C,-6.07 °C
COc1ccccc1S(=O)(=O)Nc1ccc2c(c1)CN(C)C(=O)N2,0.61 °C,1.73 °C
Cc1cccc(-c2[nH]c(CNc3ccccc3F)nc2-c2ccc3ncnn3c2)n1,4.08 °C,0.68 °C
C[C@@H]1Cc2c([nH]c3ccccc23)[C@@H](c2c(F)cc(/C=C/C(=O)O)cc2F)N1CC(C)(C)F,0.58 °C,-4.53 °C
CC(C)N(C(=O)C1CCOCC1)c1cc(F)c(Oc2ncc(Cn3nccn3)cc2C(F)(F)F)cc1C(=O)O,0.39 °C,-3.32 °C
O=C(N[C@H]1CCC[C@H](CO)C1)C1CCN(c2nc3cc(Cl)c(-c4ccc(Cl)cc4)cc3o2)CC1,-8.62 °C,-0.52 °C
CC(C)c1cnn2c(NCc3ccccc3)cc(NCCCCCCN)nc12,0.86 °C,-0.13 °C
C[C@H]1CN(C2COC2)CCN1c1ccc(Nc2cc(-c3ccnc(N4CCn5c(cc6c5CC(C)(C)C6)C4=O)c3CO)cn(C)c2=O)nc1,4.28 °C,-2.12 °C
Cc1nc2c(cc1F)c(-c1nnc3c(n1)NC(=O)C3(C)C)nn2Cc1cccc(F)c1F,0.5 °C,-2.09 °C
CC(C)(C[C@H]1CN(S(=O)(=O)c2cccc(C(F)(F)F)c2)c2cc(-c3cc(F)cc(OC(F)F)c3)ccc2O1)C(=O)O,-0.98 °C,-3.42 °C
C[C@@H](CN1CC[C@@]2(C)c3cccc(O)c3C[C@@H]1C2(C)C)OCc1ccccc1,1.19 °C,-1.96 °C
O=C(CCSCc1ccco1)NNC(=O)N1Cc2ccccc2Oc2ccc(Cl)cc21,0.24 °C,-3.17 °C
COc1cc(F)ccc1-c1ncnc(Nc2cccc(C[S@](C)(=N)=O)c2)n1,1.31 °C,-1.17 °C
O=C(O)CCCCN(CCc1ccccc1OCc1ccc(CCc2ccccc2)cc1)Cc1ccc(C(=O)O)cc1,0.8 °C,-2.23 °C
COc1ccc2c(O[C@@H]3C[C@H]4C(=O)N[C@]5(C(=O)NS(=O)(=O)C6(C)CC6)CC5/C=C\CCCCC[C@H](NC(=O)c5ccn(C)n5)C(=O)N4C3)cc(OC(C)C)nc2c1C (stereo not given in full),0.93 °C,-0.57 °C

SMILES,ΔTm [1],ΔTm (Peregrin (Homo sapiens))
Cc1ccc(-n2nc(C(C)(C)C)cc2NC(=O)Nc2ccccc2F)cc1,2.28 °C,-0.3 °C
O=C(O)C[C@H]1CC[C@H](c2ccc(NC(=O)c3nnc(Nc4ccc(F)c(F)c4)o3)cc2)CC1,0.79 °C,-2.89 °C
O=C(N[C@H](Cc1ccccc1)C(=O)O)c1cccc(OCc2cccnc2)c1,0.53 °C,-2.18 °C
CP(C)(=O)c1ccc(CNC(=O)C2CCN(S(=O)(=O)c3cc(Cl)cc(Cl)c3)CC2)cc1,0.53 °C,-3.29 °C
O=C(NCc1ccc(F)cc1)C1CCN(S(=O)(=O)c2cc(Cl)cc(Cl)c2)CC1,0.9 °C,-1.81 °C
CCc1c(-c2ccc3[nH]ncc3c2)cnc(N)c1-c1ccc(O)cc1,2.78 °C,-1.61 °C
CN1CCN(C(=O)c2ccc3cc2OCCOCCNc2ccn4ncc-3c4n2)CC1,2.23 °C,-1.15 °C
COc1ccc(-c2csc(NC(=O)[C@H]3CCCCN3S(=O)(=O)c3ccc(C)cc3)n2)cc1,0.16 °C,-0.84 °C
CNC(=O)c1ccc(C)c(-n2c(C)cc(OCc3ccc(F)cc3F)c(Br)c2=O)c1,-1.16 °C,-1.84 °C
Cn1cc(-c2ccc(N(C(=O)NCc3ccccc3)[C@H]3CC[C@H](Nc4ccc(C#N)cn4)CC3)cc2)ccc1=O,1.75 °C,-0.32 °C
COc1ccc(C(=O)N[C@H](C)c2cccc(C(=O)Nc3nc4c(s3)CN(C)CC4)c2)cc1C,0.97 °C,-0.23 °C
CCCn1cc(-c2cc(C3C(=O)N(CC)c4ccc(C(F)(F)F)cc4N(c4ccccc4)C3=O)cc(OC)c2O)cn1 (stereo not given),0.46 °C,-1.21 °C
CN[C@@H](C)C(=O)N[C@H]1CN(C(=O)CC(C)C)CC[C@H]2CC[C@@H](C(=O)NC(c3ccccc3)c3ccccc3)N2C1=O,0.83 °C,-1.53 °C
CN1CCC(F)(Cn2cnc(-c3ccc(F)cn3)c2-c2ccnc3[nH]ccc23)CC1,0.5 °C,-0.88 °C
CC(C)NC(=O)[C@H]1CCC[C@H]1Nc1nc(Nc2ccc(C(=O)N(C)C3CCN(C)CC3)cc2)ncc1Cl,6.71 °C and 5.98 °C,-1.64 °C and -0.91 °C
Nc1nccc(-c2c(-c3ccc(F)cc3)ncn2C2CCCCC2)n1,0.92 °C,-0.2 °C
N[C@@H]1CCCC[C@H]1Oc1ccc2ncc(-c3cc4ccccc4o3)n2n1,0.36 °C,-2.67 °C
CC(C)(C)OC(=O)CN1C(=O)c2c(OCC(=O)O)cccc2Oc2ccc(C(F)(F)F)cc21,0.75 °C,-3.16 °C
COc1cc(C(N)=O)ccc1Nc1ncc2c(n1)N(CCC(C)C)[C@H](C)C(=O)N2C,1.76 °C,1.82 °C
CCCCOc1c(C(=O)c2c(F)cc(C)cc2F)c[nH]c2nncc1-2,0.71 °C,-1.13 °C

SMILES,ΔTm [1],ΔTm (Peregrin (Homo sapiens))
O=C(O)CCCCCC[C@@H]1C(=O)NC(=O)N1CCC(O)C1CCCCC1 (stereo not given in full),0.47 °C,-2.88 °C
CCOc1cc(CC(=O)N[C@@H](CC(C)C)c2ccccc2N2CCCCC2)ccc1C(=O)O,0.18 °C,-3.67 °C
CC(=O)Nc1cccc(-n2c(=O)n(C3CC3)c(=O)c3c(Nc4ccc(I)cc4F)n(C)c(=O)c(C)c32)c1,0.38 °C,-0.16 °C
Cn1cc(-c2ccc(-c3cncc(Cl)c3N3CCC4(CCNC4=O)CC3)cc2)cn1,0.5 °C,-1.65 °C
Cc1ncsc1-c1ccc(CNC(=O)[C@@H]2C[C@H](O)CN2C(=O)[C@@H](NC(=O)C2(F)CC2)C(C)(C)C)c(OCCOc2ccc(CN3CCN(c4cc(-c5ccccc5O)nnc4N)CC3)cc2)c1 (relative stereo),-0.13 °C,4.18 °C
CC(=O)Nc1c(F)cc(C(=O)N[C@H]2CC[C@H](O)CC2)cc1O[C@@H](C)c1ccccc1,0.45 °C,-0.36 °C
COc1cc(-c2cncc(-c3cnn(C4CCNCC4)c3)c2)cc(OC)c1OC,0.93 °C,-0.73 °C
CC1(C)C[C@@H]1C(=O)N/C(=C\CCCCSC[C@H](N)C(=O)O)C(=O)O,0.5 °C,-2.3 °C
CNC(=O)c1cc(C(=O)NC2CC2)cn(Cc2ccccc2)c1=O,0.5 °C,-0.87 °C
COc1cnccc1Nc1nc(-c2nn(Cc3c(F)cc(OCCO)cc3F)c3ccccc23)ncc1OC,-7.58 °C,-6.89 °C
CCc1ccccc1C(=O)Nc1n[nH]c2c(C)c(F)c(C3C(C#N)=C(C)N(C)C(C)=C3C#N)cc12,2.59 °C,-1.74 °C
CC(C)[C@H](CO)Nc1nc(Nc2ccc(C(=O)O)c(Cl)c2)c2ncn(C(C)C)c2n1,4.45 °C,0.06 °C
Cc1nccn1-c1ccc(Sc2cccc(C3(C(N)=O)CCOCC3)c2)cc1,0.44 °C,-1.72 °C
CO[C@@H](C)CN1CC[C@]2(C)c3cc(O)ccc3C[C@H]1C2(C)C,1.13 °C,-3.01 °C
C[S+](C)[O-],0 °C (2×) and 0.62 °C,0 °C (2×) and -0.4 °C
C1=Cc2ccccc2C(=C2CCN(CCCCc3nnn[nH]3)CC2)c2ccccc21,0.36 °C,-1.48 °C
CC(C)C(=O)N1CCC(c2cn(C)c3ncc(NC(=O)c4cccc(C#N)c4)c(C(F)(F)F)c23)CC1,0.79 °C,0.27 °C
CNc1nc(-c2cc(C(=O)N3CCN(Cc4ccc(Cl)cc4)CC3)c(Cl)cn2)cs1,0.37 °C,-1.62 °C
c1ccc2c(c1)SCc1c-2[nH]c2ccccc12,0.81 °C,-9.42 °C
O=C1NC(=NCc2cccs2)SC1=Cc1ccc2ncccc2c1,0.61 °C,-1.16 °C
